Article PMC6407204, “Oral administration of the cannabigerol derivative VCE-003.2 promotes subventricular zone neurogenesis and protects against mutant huntingtin-induced neurodegeneration” (Translational Neurodegeneration, 2019)

Experiments:
CYP1A = molecular target: T1, CYP1A (Homo sapiens, UniProt P05177); format: in vitro ADME; conditions: Substrate = Etoxyresorufin, human liver microsomes
T1 construct: from tissue; host or cells: human liver microsomes
Procedure: (§1) Supplementary file 40035_2019_148_MOESM2_ESM.pdf: Additional file 2: Cytochrome P450 Inhibition (IC50 Determination). CYP1A Inhibition. VCE-003.2 (0.1, 0.25, 1, 2.5, 10, 25 μM in DMSO; final DMSO concentration = 0.3%) was incubated with human liver microsomes (0.25 mg/mL) and NADPH (1 mM) in the presence of the probe substrate ethoxyresorufin (0.5 μM) for 5 min at 37 °C. The selective CYP1A inhibitor, alpha-naphthoflavone, was screened alongside the test compounds as a positive control. CYP2B6 Inhibition. VCE-003.2 (0.1, 0.25, 1, 2.5, 10, 25 μM in DMSO; final DMSO concentration = 0.3%) was incubated with human liver microsomes (0.1 mg/mL) and NADPH (1 mM) in the presence of the probe substrate bupropion (110 μM) for 5 min at 37 °C. The selective CYP2B6 inhibitor, ticlopidine, was screened alongside the test compounds as a positive control. CYP2C8 Inhibition. […] For the CYP1A incubations, the reactions were terminated by methanol, and the formation of the metabolite, resorufin, was monitored by fluorescence (excitation wavelength = 535 nm, emission wavelength = 595 nm). […] Hydroxybupropion, 6α-hydroxypaclitaxel and 6ß-hydroxytestosterone were analyzed separately by LC-MS/MS. […]

[1] = test system: relevant cytochrome P450 isoforms; format: in vitro ADME; conditions: human liver microsomes, up to 25 μM
Procedure: as §1

hERG channel = hERG channel (Homo sapiens, UniProt Q12809)
Sequence of hERG channel (Q12809 whole entry): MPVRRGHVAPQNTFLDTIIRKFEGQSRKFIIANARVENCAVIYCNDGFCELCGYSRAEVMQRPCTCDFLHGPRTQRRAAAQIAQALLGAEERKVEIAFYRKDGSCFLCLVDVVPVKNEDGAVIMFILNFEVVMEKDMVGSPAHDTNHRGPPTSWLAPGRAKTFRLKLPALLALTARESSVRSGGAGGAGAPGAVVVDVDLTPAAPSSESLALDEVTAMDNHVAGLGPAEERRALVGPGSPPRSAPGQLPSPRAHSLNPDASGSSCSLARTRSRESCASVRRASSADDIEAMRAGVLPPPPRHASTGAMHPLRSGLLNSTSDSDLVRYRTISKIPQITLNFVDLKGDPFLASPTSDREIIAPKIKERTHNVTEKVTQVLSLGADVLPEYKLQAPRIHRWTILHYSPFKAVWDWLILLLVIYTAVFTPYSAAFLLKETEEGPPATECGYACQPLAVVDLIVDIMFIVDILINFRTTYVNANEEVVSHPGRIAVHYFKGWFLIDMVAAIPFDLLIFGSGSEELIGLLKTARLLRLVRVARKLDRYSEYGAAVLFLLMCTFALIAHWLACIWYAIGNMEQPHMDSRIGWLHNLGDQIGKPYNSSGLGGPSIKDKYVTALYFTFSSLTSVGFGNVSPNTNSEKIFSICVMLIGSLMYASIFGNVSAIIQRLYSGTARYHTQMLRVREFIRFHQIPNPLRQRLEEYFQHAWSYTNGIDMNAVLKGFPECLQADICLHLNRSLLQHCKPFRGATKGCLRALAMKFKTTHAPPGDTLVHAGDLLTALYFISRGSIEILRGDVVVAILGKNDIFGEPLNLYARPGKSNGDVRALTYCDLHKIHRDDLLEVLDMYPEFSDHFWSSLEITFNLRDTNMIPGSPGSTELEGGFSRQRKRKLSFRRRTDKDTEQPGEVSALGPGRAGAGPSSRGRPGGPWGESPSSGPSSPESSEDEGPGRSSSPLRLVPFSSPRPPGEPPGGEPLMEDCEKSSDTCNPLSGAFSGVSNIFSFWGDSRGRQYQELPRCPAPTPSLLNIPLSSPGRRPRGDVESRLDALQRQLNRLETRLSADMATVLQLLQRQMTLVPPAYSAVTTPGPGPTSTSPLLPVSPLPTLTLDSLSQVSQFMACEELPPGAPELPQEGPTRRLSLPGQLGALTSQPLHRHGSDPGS

T1 sequence (P05177 2-516 limits assumed): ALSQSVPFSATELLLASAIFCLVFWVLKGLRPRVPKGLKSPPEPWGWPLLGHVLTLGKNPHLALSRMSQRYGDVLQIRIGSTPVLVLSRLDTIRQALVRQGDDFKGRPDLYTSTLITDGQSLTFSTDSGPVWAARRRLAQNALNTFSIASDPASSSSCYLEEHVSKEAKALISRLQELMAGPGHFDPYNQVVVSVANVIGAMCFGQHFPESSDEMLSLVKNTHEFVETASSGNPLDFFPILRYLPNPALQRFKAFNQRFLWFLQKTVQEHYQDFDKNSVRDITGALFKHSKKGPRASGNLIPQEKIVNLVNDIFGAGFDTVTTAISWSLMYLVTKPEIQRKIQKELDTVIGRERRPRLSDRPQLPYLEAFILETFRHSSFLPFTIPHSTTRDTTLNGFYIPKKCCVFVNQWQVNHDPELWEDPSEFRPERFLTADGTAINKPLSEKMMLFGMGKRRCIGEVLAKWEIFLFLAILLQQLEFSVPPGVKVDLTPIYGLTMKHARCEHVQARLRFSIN

CCCCCC1=C(NCC)C(=O)C(CC=C(C)CCC=C(C)C)=C(O)C1=O [VCE-003.2, 2-(3,7-dimethyl-octa-2,6-dienyl)-6-ethylamino-3-hydroxy-5-pentyl-(1,4) benzoquinone]
IC50 (CYP1A): > 25 µM
inhibition of cytochrome P450 isoforms (in words) [1]: did not inhibit significantly
hERG channel activity inhibition (in words) (hERG channel): did not inhibit hERG channel activity
